Assay results taken from ChEMBL document CHEMBL1201862, “PubChem BioAssay data set” (2004).
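Cells were grown in 96-well plates and exposed to each compound for 48 hours at five concentrations; endpoints were interpolated linearly between bracketing concentrations, or set to the highest concentration if not reached. GI50 = concentration required for 50% inhibition of growth.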 The source made the active and inactive calls. Rule as the data show it: active = GI50 up to about 1.1 µM and inactive = higher.

Tests used:
Test in all cases: NCI tumour cell line growth inhibition, 48 h
[1] = test system: EKVX
[2] = test system: Malme-3M
[3] = test system: NCI/ADR-RES
[4] = test system: MOLT-4
[5] = test system: Hs-578T
[6] = test system: KM12
[7] = test system: DU-145
[8] = test system: SN12C
[9] = test system: SK-MEL-28
[10] = test system: HCT-15
[11] = test system: TK-10
[12] = test system: UO-31
[13] = test system: SF-295
[14] = test system: SW-620
[15] = test system: OVCAR-4
[16] = test system: MDA-MB-435
[17] = test system: SNB-19
[18] = test system: K562
[19] = test system: M14
[20] = test system: OVCAR-5
[21] = test system: ACHN
[22] = test system: 786-0
[23] = test system: OVCAR-8
[24] = test system: RXF 393
[25] = test system: UACC-257
[26] = test system: A498
[27] = test system: SK-OV-3
[28] = test system: UACC-62
[29] = test system: U-251
[30] = test system: NCI-H23
[31] = test system: NCI-H226
[32] = test system: SR
[33] = test system: SK-MEL-2
[34] = test system: T47D
[35] = test system: MDA-N
[36] = test system: HCT-116
[37] = test system: CAKI-1
[38] = test system: SK-MEL-5
[39] = test system: MDA-MB-231
[40] = test system: PC-3
[41] = test system: MCF7
[42] = test system: OVCAR-3
[43] = test system: SF-268
[44] = test system: NCI-H522
[45] = test system: COLO 205
[46] = test system: IGROV-1
[47] = test system: NCI-H460
[48] = test system: SNB-75
[49] = test system: A549
[50] = test system: SF-539
[51] = test system: HT-29
[52] = test system: HL-60
[53] = test system: CCRF-CEM
[54] = test system: HOP-62
[55] = test system: HCC 2998
[56] = test system: HOP-92
[57] = test system: LOX IMVI
[58] = test system: RPMI-8226

Measured: GI50

COCC1OC([P+](c2ccccc2)(c2ccccc2)c2ccccc2)CC(OC)C1OC (stereo unspecified)
inactive: [1] 42.6 µM | [2] 33.9 µM | [3] > 100 µM | [4] 58.1 µM | [5] 28.2 µM | [6] 34.5 µM | [7] 32.2 µM | [8] 29.1 µM | [9] 68.1 µM | [11] 55.7 µM | [12] > 100 µM | [13] 34.2 µM | [14] 35.5 µM | [15] 44.1 µM | [16] 29.6 µM | [17] 34.7 µM | [18] 34.2 µM | [19] 40.8 µM | [20] 51.5 µM | [21] 74.6 µM | [22] 53.2 µM | [23] 28.8 µM | [24] 27.2 µM | [25] 21 µM | [26] 37.2 µM | [27] 32.6 µM | [28] 49.5 µM | [29] 35.6 µM | [30] 48.6 µM | [31] 33.9 µM | [32] 17.4 µM | [33] 24.1 µM | [34] 20.6 µM | [35] 37.2 µM | [36] 32.6 µM | [37] > 100 µM | [38] 18.2 µM | [39] 44.3 µM | [40] 30.5 µM | [41] 38 µM | [42] 22.7 µM
> 100 µM: [10]

COc1ccc(-c2coc3cc(O)ccc3c2=O)cc1 [FORMONONETIN]
> 100 µM: [10]
inactive: [43] > 100 µM | [44] > 100 µM | [2] > 100 µM | [3] > 100 µM | [45] > 100 µM | [4] > 100 µM | [5] > 100 µM | [6] > 100 µM | [7] > 100 µM | [8] > 100 µM | [46] > 100 µM | [9] > 100 µM | [47] > 100 µM | [48] > 100 µM | [49] > 100 µM | [11] > 100 µM | [12] 90.6 µM | [13] > 100 µM | [14] > 100 µM | [16] > 100 µM | [17] > 100 µM | [18] > 100 µM | [19] > 100 µM | [20] > 100 µM | [21] > 100 µM | [50] > 100 µM | [22] > 100 µM | [23] > 100 µM | [51] > 100 µM | [52] > 100 µM | [25] > 100 µM | [26] > 100 µM | [27] > 100 µM | [28] > 100 µM | [29] > 100 µM | [30] > 100 µM | [31] > 100 µM | [53] > 100 µM | [32] > 100 µM | [33] > 100 µM | [34] > 100 µM | [35] > 100 µM | [36] > 100 µM | [37] > 100 µM | [38] > 100 µM | [54] > 100 µM | [39] 11.3 µM | [40] > 100 µM | [55] > 100 µM | [41] > 100 µM | [42] > 100 µM

COc1ccc(C=C2C(=O)NC(=S)NC2=O)c2ccccc12
active: [26] 0.224 µM | [31] 0.179 µM
inactive: [1] 82 µM | [43] 34.5 µM | [44] 47.2 µM | [3] 26.7 µM | [4] 83.2 µM | [56] > 100 µM | [5] 28.2 µM | [6] 44.3 µM | [7] 23.8 µM | [46] 38.3 µM | [9] 57.8 µM | [47] 12 µM | [57] 34.4 µM | [11] 7.6 µM | [12] > 100 µM | [13] 31.3 µM | [14] 33.4 µM | [15] > 100 µM | [16] 27 µM | [18] 43.4 µM | [19] 45 µM | [20] 5.13 µM | [21] 97.5 µM | [50] 22 µM | [22] 47 µM | [23] 33.4 µM | [51] 28.2 µM | [24] 20.7 µM | [52] 24.3 µM | [25] 14.4 µM | [27] 37.1 µM | [58] 34.5 µM | [29] 27.6 µM | [30] 32.8 µM | [53] 32.4 µM | [32] 42.7 µM | [33] 21.2 µM | [34] 32.1 µM | [35] 18.1 µM | [36] 40 µM | [37] 50.2 µM | [38] 29.1 µM | [54] 30.4 µM | [39] 39.9 µM | [40] 26.2 µM | [55] 32.6 µM | [41] 22.5 µM | [42] 24 µM
33.1 µM: [10]

O=Cc1c2c(cc3c1CC1(C3)Cc3cc4c(c(C=O)c3C1)CCC4)CCC2
> 100 µM: [10]
inactive: [1] 47.3 µM | [44] 24.9 µM | [2] 27.5 µM | [3] 68.2 µM | [45] 27.2 µM | [4] 11.3 µM | [56] 23 µM | [5] 23.1 µM | [8] 65.9 µM | [46] 17 µM | [57] 21.8 µM | [49] 30.3 µM | [11] 32.5 µM | [12] 2.37 µM | [13] 59.3 µM | [15] 20.9 µM | [16] 45.6 µM | [18] 14.4 µM | [19] 32.6 µM | [20] > 100 µM | [21] 16.6 µM | [50] 37.5 µM | [22] > 100 µM | [23] 47.3 µM | [51] 31.3 µM | [24] 41.3 µM | [52] 27.5 µM | [25] 34.8 µM | [26] 30.7 µM | [27] 36.1 µM | [28] 22.3 µM | [58] 43.6 µM | [29] 16.3 µM | [30] 45.3 µM | [31] 29.1 µM | [53] 17 µM | [32] 35.1 µM | [33] 21.3 µM | [34] 46.1 µM | [35] 48.2 µM | [36] 14.7 µM | [38] 29.9 µM | [54] 17.1 µM | [39] 23.5 µM | [40] 30.3 µM | [55] 36.6 µM | [41] 36 µM | [42] 24.1 µM

C=C(C)[C@]12CC(C)C34OC(/C=C\C=C\CCCCCCCCC)(O[C@@H]1[C@@H]3[C@@H]1O[C@]1(CO)[C@@H](O)[C@]1(O)C(=O)C(C)=C[C@@H]41)O2 (stereo partly specified)
inactive: [1] 13.4 µM | [43] 12.8 µM | [44] 14.7 µM | [3] 18.5 µM | [4] 2.14 µM | [6] 6.97 µM | [7] 8.38 µM | [8] 2.42 µM | [46] 14.8 µM | [9] 12.1 µM | [48] 5.07 µM | [12] 11.2 µM | [15] 9.93 µM | [17] 16.6 µM | [19] 13.1 µM | [20] 17.1 µM | [21] 5.61 µM | [22] 6.35 µM | [23] 16.3 µM | [51] 2.21 µM | [24] 14.8 µM | [25] 14.7 µM | [27] 20.3 µM | [28] 10 µM | [58] 11.9 µM | [29] 15.5 µM | [30] 14.4 µM | [31] 18 µM | [53] 2.52 µM | [32] 2.16 µM | [34] 11.9 µM | [36] 7.48 µM | [38] 11.7 µM | [40] 2 µM | [41] 10.6 µM | [42] 6.41 µM
active: [2] 0.535 µM | [45] 0.0001 µM | [5] 0.01 µM | [47] 0.01 µM | [57] 0.026 µM | [49] < 0.012 µM | [11] 0.000288 µM | [13] 0.01 µM | [16] 0.0223 µM | [18] 0.0103 µM | [50] 0.01 µM | [52] 0.0103 µM | [35] 0.01 µM | [39] 0.01 µM | [55] 0.01 µM
12.4 µM: [10]
